Assay results: patent publication EP1283044A2, “Injectable ready-to-use solutions containing an antitumor anthracycline glycoside” (Pharmacia Italia S.p.A., priority 1986, dated 1988)
Counter-ions that a name gives are not always drawn. Blank lines part the entries; values can stand above or below the molecule they belong to.

Assays:
[1] = pH-stability profile at 55°C of epirubicin.HCl 2 mg/ml solutions in Water for Injection, 0.9% saline or 5% dextrose: HPLC assay, pH, Kobs; type: physicochemical
Method: Each solution was filtered through a 0.22 µm microporous membrane under nitrogen pressure. 5.0 ml of each solution were stored at 55°C in glass vials of glass type I, 8ml top capacity vial, Teflon (Trade Mark)-faced chlorobutyl rubber bung, aluminium seal.
The doxorubicin.HCl assays are the mean of three independent determinations performed by the US Pharmacopoeia (USP high performance liquid chromatography (HPLC) method (USP XXI)).
Solutions of epirubicin were prepared in the same fashion as the corresponding doxorubicin solutions hereinbefore. They were then tested for stability in the same way. The results are presented in Tables 32 to 61 below and illustrated in Figures 4 to 6.

[2] = Shelf-life (t90%) forecast, Arrhenius approach, doxorubicin.HCl 2 mg/ml sterile water solution pH 3.0; type: physicochemical; details: for K x 10^3: 2 mg/ml sterile water solution pH 3.0, calculated from Arrhenius equation; for t90%: 2 mg/ml sterile water solution pH 3.0, calculated shelf-life; for Kobs x 10^3: 2 mg/ml sterile water solution pH 3.0, observed
Method: (§1) The solution was filtered through a 0.22 µm microporous membrane under nitrogen pressure. 5.0 ml aliquots were stored at: • (a) 55°C for 21 days, • (b) 45°C and 35°C for 28 days, and • (c) 27°C for 90 days. in glass vials of glass type I, 8ml top capacity vial, Teflon-faced chlorobutyl rubber bung, aluminium seal. At predetermined times the vials were analysed for doxorubicin.HCl assay and pH.
(§2) The Arrhenius equation for the degradation process was calculated from the Kobs obtained from the different temperatures taken in account for the testing (Table 8). Applying the equation, the rate constants for the pseudo-first order reactions at 4°C, 8°C, 15°C and 27°C were calculated, together with the expected shelf-life (t90%)at these temperatures.

[3] = Shelf-life (t90%) forecast, Arrhenius approach, doxorubicin.HCl 2 mg/ml pH 3.0 in 5% dextrose; type: physicochemical; details: 2 mg/ml pH 3.0 solution in 5% dextrose; for t90%: calculated shelf-life; for Kobs x 10^3: observed
Method: The solution was filtered through a 0.22 µm microporous membrane under nitrogen pressure. 5.0 ml aliquots were stored at: • (a) 60°C for 8 days, • (b) 55°C for 28 days, • (c) 45°C for 28 days, and • (d) 35°C for 28 days in glass vials of glass type I, 8ml top capacity vial, Teflon-faced chlorobutyl rubber bung, aluminium seal.
as §2, with “30).” for “8).”, “(t90%) at” for “(t90%)at”

[4] = Long term stability of doxorubicin.HCl 2 mg/ml solution in 0.9% sodium chloride at pH 3.7; details: batch TF/23256, 0.9% sodium chloride
[5] = Shelf-life (t90%) forecast, Arrhenius approach, doxorubicin.HCl 2 mg/ml pH 3.0 in 0.9% sodium chloride; type: physicochemical; details: 2 mg/ml pH 3.0 solution in 0.9% NaCl; for K x 10^3: calculated from Arrhenius equation; for t90%: calculated shelf-life; for Kobs x 10^3: observed
Method: as §1, with “(a) 60°C for 4 days, • (b)” for “(a)”, “55°C for 11 days, • (c) 45°C” for “55°C”, “days, and” for “days,”, “(d)” for “(b) 45°C and”, “days” for “days, and • (c) 27°C for 90 days.”
as §2, with “28).” for “8).”, “(t90%) at” for “(t90%)at”

- Kobs x 10^3 ([1]; 2 mg/ml in 0.9% Sodium Chloride Injection, Acetate (I = 0.05) pH 4.0, 55°C): 124.8 1/days
- Kobs x 10^3 ([1]; 2 mg/ml in 0.9% Sodium Chloride Injection, Acetate (I= 0.05) pH 5.0, 55°C): 318.1 1/days
- Kobs x 10^3 ([1]; 2 mg/ml in 0.9% Sodium Chloride Injection, Formate (I = 0.05) pH 3.5, 55°C): 124.5 1/days
- Kobs x 10^3 ([1]; 2 mg/ml in 0.9% Sodium Chloride Injection, Glycine-HCl (I = 0.05) pH 2.0, 55°C): 168.9 1/days
- Kobs x 10^3 ([1]; 2 mg/ml in 0.9% Sodium Chloride Injection, Glycine-HCl (I = 0.05) pH 2.5, 55°C): 97.3 1/days
- Kobs x 10^3 ([1]; 2 mg/ml in 0.9% Sodium Chloride Injection, Glycine-HCl (I = 0.05) pH 3.0, 55°C): 84.8 1/days
- Kobs x 10^3 ([1]; 2 mg/ml in 0.9% Sodium Chloride Injection, HCl-KCl (I = 0.05) pH 1.5, 55°C): 343.2 1/days
- Kobs x 10^3 ([1]; 2 mg/ml in 5% Dextrose solution, Acetate (I = 0.05) pH 4.0, 55°C): 150.6 1/days
- Kobs x 10^3 ([1]; 2 mg/ml in 5% Dextrose solution, Acetate (I = 0.05) pH 5.0, 55°C): 225.7 1/days
- Kobs x 10^3 ([1]; 2 mg/ml in 5% Dextrose solution, Formate (I = 0.05) pH 3.5, 55°C): 89.1 1/days
- Kobs x 10^3 ([1]; 2 mg/ml in 5% Dextrose solution, Glycine-HCl (I = 0.05) pH 2.0, 55°C): 106.9 1/days
- Kobs x 10^3 ([1]; 2 mg/ml in 5% Dextrose solution, Glycine-HCl (I = 0.05) pH 2.5, 55°C): 81.1 1/days
- Kobs x 10^3 ([1]; 2 mg/ml in 5% Dextrose solution, Glycine-HCl (I = 0.05) pH 3.0, 55°C): 70.9 1/days
- Kobs x 10^3 ([1]; 2 mg/ml in 5% Dextrose solution, HCl-KCl (I = 0.05) pH 1.5, 55°C): 288.1 1/days
- Kobs x 10^3 ([1]; 2 mg/ml in Water for Injection, Acetate (I = 0.05) pH 4.0, 55°C): 376.7 1/days
- Kobs x 10^3 ([1]; 2 mg/ml in Water for Injection, Acetate (I = 0.05) pH 5.0, 55°C): 430.4 1/days
- Kobs x 10^3 ([1]; 2 mg/ml in Water for Injection, Fermate (I = 0.05) pH 3.5, 55°C): 125.4 1/days
- Kobs x 10^3 ([1]; 2 mg/ml in Water for Injection, Glycine-HCl (I = 0.05) pH 2.0, 55°C): 79.0 1/days
- Kobs x 10^3 ([1]; 2 mg/ml in Water for Injection, Glycine-HCl (I = 0.05) pH 2.5, 55°C): 55.1 1/days
- Kobs x 10^3 ([1]; 2 mg/ml in Water for Injection, Glycine-HCl (I = 0.05) pH 3.0, 55°C): 66.8 1/days
SMILES: COc1cccc2c1C(=O)c1c(O)c3c(c(O)c1C2=O)C[C@@](O)(C(=O)CO)C[C@@H]3O[C@H]1C[C@H](N)[C@@H](O)[C@H](C)O1 [epirubicin.HCl, 4'-epi-doxorubicin]

- K x 10^3 ([2]; 4°C): 0.019 1/days
- K x 10^3 ([2]; 8°C): 0.038 1/days
- K x 10^3 ([2]; 15°C): 0.130 1/days
- K x 10^3 ([2]; 27°C): 0.918 1/days
- t90% ([2]; 4°C): 5,652 days
- t90% ([2]; 8°C): 2,745 days
- t90% ([2]; 15°C): 810 days
- t90% ([2]; 27°C): 115 days
- Kobs x 10^3 ([2]; 27°C): 0.850 1/days
- Kobs x 10^3 ([2]; 35°C): 3.506 1/days
- Kobs x 10^3 ([2]; 45°C): 12.790 1/days
- Kobs x 10^3 ([2]; 55°C): 49.340 1/days
- t90% ([3]; 4°C): 3,218 days
- t90% ([3]; 8°C): 1,628 days
- t90% ([3]; 15°C): 516 days
- t90% ([3]; 27°C): 82 days
- Kobs x 10^3 ([3]; 35°C): 4.190 1/days
- Kobs x 10^3 ([3]; 45°C): 14.55 1/days
- Kobs x 10^3 ([3]; 55°C): 58.11 1/days
- Kobs x 10^3 ([3]; 60°C): 102.6 1/days
- % stability ([4]; pH 3.7, 8°C, 0 months): 100.0%
- Doxorubicin.HCl assay ([4]; pH 3.7, 8°C, 0 months): 2.064 mg/mL
- pH ([4]; pH 3.7, 8°C, 0 months): 3.7
- % stability ([4]; pH 3.7, 8°C, 1 month): 99.3%
- Doxorubicin.HCl assay ([4]; pH 3.7, 8°C, 1 month): 2.054 mg/mL
- pH ([4]; pH 3.7, 8°C, 1 month): 3.7
- % stability ([4]; pH 3.7, 8°C, 3 months): 100.0%
- Doxorubicin.HCl assay ([4]; pH 3.7, 8°C, 3 months): 2.063 mg/mL
- pH ([4]; pH 3.7, 8°C, 3 months): 3.6
- % stability ([4]; pH 3.7, 15°C, 0 months): 100.0%
- Doxorubicin.HCl assay ([4]; pH 3.7, 15°C, 0 months): 2.064 mg/mL
- pH ([4]; pH 3.7, 15°C, 0 months): 3.7
- % stability ([4]; pH 3.7, 15°C, 1 month): 100.5%
- Doxorubicin.HCl assay ([4]; pH 3.7, 15°C, 1 month): 2.073 mg/mL
- pH ([4]; pH 3.7, 15°C, 1 month): 3.7
- % stability ([4]; pH 3.7, 15°C, 3 months): 98.4%
- Doxorubicin.HCl assay ([4]; pH 3.7, 15°C, 3 months): 2.029 mg/mL
- pH ([4]; pH 3.7, 15°C, 3 months): 3.6
- % stability ([4]; pH 3.7, 27°C, 0 months): 100.0%
- Doxorubicin.HCl assay ([4]; pH 3.7, 27°C, 0 months): 2.064 mg/mL
- pH ([4]; pH 3.7, 27°C, 0 months): 3.7
- % stability ([4]; pH 3.7, 27°C, 1 month): 91.5%
- Doxorubicin.HCl assay ([4]; pH 3.7, 27°C, 1 month): 1.888 mg/mL
- pH ([4]; pH 3.7, 27°C, 1 month): 3.6
- % stability ([4]; pH 3.7, 27°C, 3 months): 74.9%
- pH ([4]; pH 3.7, 27°C, 3 months): 3.3
- K x 10^3 ([5]; 4°C): 0.017 1/days
- K x 10^3 ([5]; 8°C): 0.037 1/days
- K x 10^3 ([5]; 15°C): 0.137 1/days
- K x 10^3 ([5]; 27°C): 1.112 1/days
- t90% ([5]; 4°C): 6,166 days
- t90% ([5]; 8°C): 2,838 days
- t90% ([5]; 15°C): 768 days
- t90% ([5]; 27°C): 94 days
- Kobs x 10^3 ([5]; 35°C): 3.89 1/days
- Kobs x 10^3 ([5]; 45°C): 21.61 1/days
- Kobs x 10^3 ([5]; 55°C): 75.90 1/days
- Kobs x 10^3 ([5]; 60°C): 164.9 1/days
SMILES: COc1cccc2c1C(=O)c1c(O)c3c(c(O)c1C2=O)C[C@@](O)(C(=O)CO)C[C@@H]3O[C@H]1C[C@H](N)[C@H](O)[C@H](C)O1 [Doxorubicin·HCl, doxorubicin]
